Entries after “also recorded” stand apart in the source; their conditions may differ.
Key:
human VMAT1 transporter = target: T1, human VMAT1 transporter (Homo sapiens, UniProt P54219); test: Uptake in cells expressing VMAT1; format: cell-based; settings: concentrations up to 10 μM
T1 construct: expressed in transfected cells
T1 sequence (P54219 1-525): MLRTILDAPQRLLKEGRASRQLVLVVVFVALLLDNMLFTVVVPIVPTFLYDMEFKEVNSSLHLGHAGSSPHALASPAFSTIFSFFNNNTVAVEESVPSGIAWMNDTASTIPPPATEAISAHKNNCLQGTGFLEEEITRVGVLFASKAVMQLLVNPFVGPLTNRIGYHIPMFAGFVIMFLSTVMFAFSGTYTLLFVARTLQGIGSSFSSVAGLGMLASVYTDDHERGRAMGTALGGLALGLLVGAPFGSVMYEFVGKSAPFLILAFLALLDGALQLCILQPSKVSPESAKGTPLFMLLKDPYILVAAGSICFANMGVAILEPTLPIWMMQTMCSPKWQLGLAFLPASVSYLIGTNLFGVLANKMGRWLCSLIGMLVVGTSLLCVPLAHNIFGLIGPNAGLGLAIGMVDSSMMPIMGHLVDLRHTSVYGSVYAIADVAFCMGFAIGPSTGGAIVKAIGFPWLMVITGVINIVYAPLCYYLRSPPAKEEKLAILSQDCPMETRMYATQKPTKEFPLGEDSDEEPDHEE
Protocol: None of the TBZ or VBZ metabolites had any affinity for the monoamine transporters DAT, SERT or NET. To complete the selectivity profile for VMAT2, the functional activity for the human VMAT1 transporter of these compounds was tested in cells expressing VMAT1.

Dopamine D2(s) = Dopamine D2(s) (Homo sapiens, UniProt P14416); test: Cerep screen, ligand binding; settings: radioligand binding assays and broad panel screen
Sequence of Dopamine D2(s) (P14416 1-414 isoform P14416-2): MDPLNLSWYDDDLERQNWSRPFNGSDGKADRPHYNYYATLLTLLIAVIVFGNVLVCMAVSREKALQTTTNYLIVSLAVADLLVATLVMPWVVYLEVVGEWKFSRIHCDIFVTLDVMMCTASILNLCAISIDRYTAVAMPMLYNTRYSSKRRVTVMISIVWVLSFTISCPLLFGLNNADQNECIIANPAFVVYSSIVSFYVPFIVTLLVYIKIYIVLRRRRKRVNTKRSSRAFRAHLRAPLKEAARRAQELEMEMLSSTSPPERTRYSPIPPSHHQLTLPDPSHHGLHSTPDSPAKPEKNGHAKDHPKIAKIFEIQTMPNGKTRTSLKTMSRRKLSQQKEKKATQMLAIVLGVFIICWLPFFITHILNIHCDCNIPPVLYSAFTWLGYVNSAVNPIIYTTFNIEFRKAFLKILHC

Dopamine D1 = Dopamine D1 (Homo sapiens, UniProt P21728); test: Cerep screen, ligand binding; settings: radioligand binding assays and broad panel screen
Sequence of Dopamine D1 (P21728 whole entry): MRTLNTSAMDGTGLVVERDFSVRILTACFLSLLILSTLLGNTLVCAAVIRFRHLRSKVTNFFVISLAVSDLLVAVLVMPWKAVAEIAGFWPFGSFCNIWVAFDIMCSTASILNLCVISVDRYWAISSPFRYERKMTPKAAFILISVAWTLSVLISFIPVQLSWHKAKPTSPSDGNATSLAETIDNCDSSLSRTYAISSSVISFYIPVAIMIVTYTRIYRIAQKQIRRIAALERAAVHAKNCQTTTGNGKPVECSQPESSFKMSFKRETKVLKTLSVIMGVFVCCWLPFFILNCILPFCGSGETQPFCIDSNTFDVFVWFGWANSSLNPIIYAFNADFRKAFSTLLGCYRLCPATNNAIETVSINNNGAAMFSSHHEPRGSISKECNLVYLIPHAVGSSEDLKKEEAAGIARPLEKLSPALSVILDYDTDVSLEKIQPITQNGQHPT

VMAT2 [1] = target: T2, VMAT2 (Homo sapiens, UniProt Q05940); test: Inhibition of [3H]-DHTBZ binding to human platelets
T2 construct: from tissue; host or cells: human platelets (homogenates)
T2 sequence (Q05940 whole entry): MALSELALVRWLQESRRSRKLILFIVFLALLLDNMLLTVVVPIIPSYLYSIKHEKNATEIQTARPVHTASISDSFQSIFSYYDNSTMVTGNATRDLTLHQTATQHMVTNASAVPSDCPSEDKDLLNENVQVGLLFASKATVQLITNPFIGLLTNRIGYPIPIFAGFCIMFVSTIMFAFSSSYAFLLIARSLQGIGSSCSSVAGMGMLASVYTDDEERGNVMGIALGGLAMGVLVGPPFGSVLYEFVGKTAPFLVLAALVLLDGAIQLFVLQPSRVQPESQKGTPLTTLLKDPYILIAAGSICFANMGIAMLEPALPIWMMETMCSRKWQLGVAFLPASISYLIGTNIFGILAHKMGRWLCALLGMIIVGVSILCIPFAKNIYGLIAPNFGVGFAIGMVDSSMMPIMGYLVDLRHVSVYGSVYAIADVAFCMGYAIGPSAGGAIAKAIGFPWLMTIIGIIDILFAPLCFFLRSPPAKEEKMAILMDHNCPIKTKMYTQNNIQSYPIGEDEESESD

VMAT2 [2] = target: T3, VMAT2 (Rattus norvegicus, UniProt Q01827); test: Inhibition of [3H]-DHTBZ binding to rat striatal membranes; settings: Rat Striatum
T3 construct: from tissue; host or cells: rat forebrain membranes
T3 sequence (Q01827 whole entry): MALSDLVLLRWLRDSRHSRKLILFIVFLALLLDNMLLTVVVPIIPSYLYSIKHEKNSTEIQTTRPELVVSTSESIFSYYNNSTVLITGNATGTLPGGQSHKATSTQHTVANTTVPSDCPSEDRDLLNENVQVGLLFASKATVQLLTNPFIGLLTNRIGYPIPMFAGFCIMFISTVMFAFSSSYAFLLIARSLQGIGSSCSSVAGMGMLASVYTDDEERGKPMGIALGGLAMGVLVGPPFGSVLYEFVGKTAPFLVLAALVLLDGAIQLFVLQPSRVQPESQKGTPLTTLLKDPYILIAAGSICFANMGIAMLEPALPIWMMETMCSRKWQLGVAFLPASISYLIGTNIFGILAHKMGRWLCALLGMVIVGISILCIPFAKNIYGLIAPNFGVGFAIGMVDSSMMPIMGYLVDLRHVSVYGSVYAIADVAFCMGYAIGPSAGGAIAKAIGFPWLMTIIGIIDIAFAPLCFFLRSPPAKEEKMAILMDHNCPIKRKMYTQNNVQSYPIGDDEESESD

[3] = test system: more than 80 targets including GPCRs, cell-surface monoamine transporters, and ion channels including HERG; test: Multi-target activity screen (Cerep screen); settings: receptors
[4] = both, human, in vivo
Source text: (§1) Overall, 24 male and female subjects were enrolled, including 6 subjects with normal hepatic function (Group I), 6 with mild stable hepatic impairment (Group II), 6 with moderate stable hepatic impairment (Group III), and 6 with severe stable hepatic impairment (Group IV). […] All subjects were genotyped to determine their cytochrome P450 2D6 (CYP2D6) status.
(§2) The Child-Pugh scale was used to categorize the degree of hepatic impairment for assignment into the mild (score of 5-6), moderate (score of 7-9), and severe hepatic impairment (score of 10-15) groups.
(§3) After providing informed consent, subjects were screened for eligibility within 28 days of study drug dosing on Day 1. Eligible subjects were admitted to the center in the morning (Day −1), before the dosing day and remained confined in the center for 4 days. Subjects were discharged on Day 4, after the collection of the 72-hour PK sample and safety assessments. On the morning of Days 5 and 6, subjects returned to the center for a PK sample collection and safety assessments; a final study visit was conducted on Day 8 (7 days postdose).
(§4) Safety assessments were conducted at scheduled times throughout the study.

clinical = settings: both, human, in vivo
Source text: as §1, §2, §3, §4

ptosis = test: Ptosis, in vivo surrogate measure
serum prolactin = test: Prolactin release, in vivo surrogate measure
[5] = Phase 1 single-dose safety and tolerability (adverse events, laboratory tests, vital signs, ECG); format: in vivo, human; settings: NBI-98854 50 mg single dose; for Abdominal discomfort / Adverse events: Overall / Back pain / Constipation / Dyspepsia / Epistaxis / Gastrointestinal Disorders / General Disorders and Administrative Site Conditions / Haemorrhoids / Headache / Infections and Infestations / Musculoskeletal and Connective Tissue Disorders / Nausea / Nervous System Disorders / Rash / Respiratory, Thoracic, and Mediastinal Disorders / Rhinitis / Skin and Subcutaneous Tissue Disorders / Vessel puncture site haematoma: subjects n (%)
[6] = test system: dopamine, serotonin and adrenergic receptor subtypes; test: Detailed radioligand binding assays, monoamine receptor subtypes

COC(=O)[C@H]1[C@H]2C[C@@H]3c4[nH]c5cc(OC)ccc5c4CCN3C[C@H]2C[C@@H](OC(=O)c2cc(OC)c(OC)c(OC)c2)[C@@H]1OC [reserpine, reference compound]
inhibition of uptake through VMAT1 (human VMAT1 transporter): substantially inhibited uptake through VMAT1

COc1cc2c(cc1OC)[C@@H]1C[C@@H](O)[C@@H](CC(C)C)CN1CC2 [R,S,S-DHTBZ]
interaction with D2 receptors (Dopamine D2(s)): interact with D1 and D2 receptors | interaction with D1 receptors (Dopamine D1): interact with D1 and D2 receptors

COc1cc2c(cc1OC)[C@H]1C[C@@H](OC(=O)[C@@H](N)C(C)C)[C@H](CC(C)C)CN1CC2 [NBI-98854, (S)-2-amino-3-methyl-butyric acid (2R,3R,11bR)-3-isobutyl-9,10-dimethoxy-1,3,4,6,7,11b-hexahydro-2H-pyrido[2,1-a]isoquinolin-2-yl ester]
Affinity Relative to R,R,R-DHTBZ (VMAT2 [1]): 45 | Affinity Relative to R,R,R-DHTBZ (VMAT2 [2]): 39 | affinity for more than 80 binding sites [3]: little to no affinity | increase in Cmax [4]: 2-3 fold | increase in t1/2 with hepatic impairment [4]: < 2 fold | increase in tmax with hepatic impairment [4]: < 2 fold | mean Tlag [4]: 0.17 to 0.38 h | inhibition of uptake through VMAT1 (human VMAT1 transporter; listed as VBZ): no significant inhibitory activity; also recorded: no significant effect on the uptake of monoamines through VMAT1 | MRT (clinical): 23 to 30 h | half-life (clinical; mean t1/2): 21 to 22 h | MRT (clinical; po, 50 mg): 24 h | Tmax (clinical; po, 50 mg, TMAX): 1.1 h | Vd/F (clinical; po, 50 mg, Vz/F): 600 L | half-life (clinical; po, 50 mg, t1/2): 28 h | induction of ptosis (ptosis): induced ptosis in an equivalent manner | increase in serum prolactin levels (serum prolactin): to a lesser extent | Abdominal discomfort ([5]; Mild (N = 6)): 0 | Adverse events: Overall ([5]; Mild (N = 6)): 2 (33.3%) | Back pain ([5]; Mild (N = 6)): 0 | Constipation ([5]; Mild (N = 6)): 0 | Dyspepsia ([5]; Mild (N = 6)): 0 | Epistaxis ([5]; Mild (N = 6)): 0 | Gastrointestinal Disorders ([5]; Mild (N = 6)): 1 (16.7%) | General Disorders and Administrative Site Conditions ([5]; Mild (N = 6)): 0 | Haemorrhoids ([5]; Mild (N = 6)): 1 (16.7%) | Headache ([5]; Mild (N = 6)): 1 (16.7%) | Infections and Infestations ([5]; Mild (N = 6)): 1 (16.7%) | Musculoskeletal and Connective Tissue Disorders ([5]; Mild (N = 6)): 0 | Nausea ([5]; Mild (N = 6)): 0 | Nervous System Disorders ([5]; Mild (N = 6)): 1 (16.7%) | Rash ([5]; Mild (N = 6)): 0 | Respiratory, Thoracic, and Mediastinal Disorders ([5]; Mild (N = 6)): 0 | Rhinitis ([5]; Mild (N = 6)): 1 (16.7%) | Skin and Subcutaneous Tissue Disorders ([5]; Mild (N = 6)): 0 | Vessel puncture site haematoma ([5]; Mild (N = 6)): 0 | Abdominal discomfort ([5]; Moderate (N = 6)): 0 | Adverse events: Overall ([5]; Moderate (N = 6)): 2 (33.3%) | Back pain ([5]; Moderate (N = 6)): 1 (16.7%) | Constipation ([5]; Moderate (N = 6)): 1 (16.7%) | Dyspepsia ([5]; Moderate (N = 6)): 0 | Epistaxis ([5]; Moderate (N = 6)): 0 | Gastrointestinal Disorders ([5]; Moderate (N = 6)): 1 (16.7%) | General Disorders and Administrative Site Conditions ([5]; Moderate (N = 6)): 0 | Haemorrhoids ([5]; Moderate (N = 6)): 0 | Headache ([5]; Moderate (N = 6)): 0 | Infections and Infestations ([5]; Moderate (N = 6)): 0 | Musculoskeletal and Connective Tissue Disorders ([5]; Moderate (N = 6)): 1 (16.7%) | Nausea ([5]; Moderate (N = 6)): 0 | Nervous System Disorders ([5]; Moderate (N = 6)): 0 | Rash ([5]; Moderate (N = 6)): 1 (16.7%) | Respiratory, Thoracic, and Mediastinal Disorders ([5]; Moderate (N = 6)): 0 | Rhinitis ([5]; Moderate (N = 6)): 0 | Skin and Subcutaneous Tissue Disorders ([5]; Moderate (N = 6)): 1 (16.7%) | Vessel puncture site haematoma ([5]; Moderate (N = 6)): 0 | Abdominal discomfort ([5]; Normal (N = 6)): 1 (16.7%) | Adverse events: Overall ([5]; Normal (N = 6)): 2 (33.3%) | Back pain ([5]; Normal (N = 6)): 0 | Constipation ([5]; Normal (N = 6)): 0 | Dyspepsia ([5]; Normal (N = 6)): 0 | Epistaxis ([5]; Normal (N = 6)): 0 | Gastrointestinal Disorders ([5]; Normal (N = 6)): 1 (16.7%) | General Disorders and Administrative Site Conditions ([5]; Normal (N = 6)): 1 (16.7%) | Haemorrhoids ([5]; Normal (N = 6)): 0 | Headache ([5]; Normal (N = 6)): 0 | Infections and Infestations ([5]; Normal (N = 6)): 0 | Musculoskeletal and Connective Tissue Disorders ([5]; Normal (N = 6)): 0 | Nausea ([5]; Normal (N = 6)): 0 | Nervous System Disorders ([5]; Normal (N = 6)): 0 | Rash ([5]; Normal (N = 6)): 0 | Respiratory, Thoracic, and Mediastinal Disorders ([5]; Normal (N = 6)): 0 | Rhinitis ([5]; Normal (N = 6)): 0 | Skin and Subcutaneous Tissue Disorders ([5]; Normal (N = 6)): 0 | Vessel puncture site haematoma ([5]; Normal (N = 6)): 1 (16.7%) | Abdominal discomfort ([5]; Severe (N = 6)): 0 | Adverse events: Overall ([5]; Severe (N = 6)): 2 (33.3%) | Back pain ([5]; Severe (N = 6)): 0 | Constipation ([5]; Severe (N = 6)): 0 | Dyspepsia ([5]; Severe (N = 6)): 1 (16.7%) | Epistaxis ([5]; Severe (N = 6)): 1 (16.7%) | Gastrointestinal Disorders ([5]; Severe (N = 6)): 1 (16.7%) | General Disorders and Administrative Site Conditions ([5]; Severe (N = 6)): 0 | Haemorrhoids ([5]; Severe (N = 6)): 0 | Headache ([5]; Severe (N = 6)): 0 | Infections and Infestations ([5]; Severe (N = 6)): 0 | Musculoskeletal and Connective Tissue Disorders ([5]; Severe (N = 6)): 0 | Nausea ([5]; Severe (N = 6)): 1 (16.7%) | Nervous System Disorders ([5]; Severe (N = 6)): 0 | Rash ([5]; Severe (N = 6)): 0 | Respiratory, Thoracic, and Mediastinal Disorders ([5]; Severe (N = 6)): 1 (16.7%) | Rhinitis ([5]; Severe (N = 6)): 0 | Skin and Subcutaneous Tissue Disorders ([5]; Severe (N = 6)): 0 | Vessel puncture site haematoma ([5]; Severe (N = 6)): 0 | intensity of TEAEs judged by the investigator ([5]; all TEAEs): mild in intensity | changes in clinical laboratory tests, vital signs measurements, or ECG parameters ([5]; all groups): no clinically significant changes | deaths, serious or severe TEAEs ([5]; all groups): No deaths, serious or severe treatment-emergent adverse events (TEAEs) were reported; also recorded: No deaths, serious TEAEs, or discontinuations due to an AE were reported | discontinuation due to a TEAE ([5]; all groups): no subject discontinued the study due to a TEAE | tolerability ([5]; normal subjects and subjects with hepatic impairment): well-tolerated | Treatment-related AEs (possibly or definitely related to study drug) ([5]; of 24 subjects): 4 subjects

COc1cc2c(cc1OC)[C@@H]1C[C@H](O)[C@@H](CC(C)C)CN1CC2 [S,S,S-DHTBZ]
interaction with D2 receptors (Dopamine D2(s)): interact with D1 and D2 receptors | interaction with D1 receptors (Dopamine D1): interact with D1 and D2 receptors

COc1cc2c(cc1OC)[C@H]1C[C@@H](OC(=O)[C@@H](N)C(C)(C)O)[C@H](CC(C)C)CN1CC2 [NBI-136110]
affinity for more than 80 binding sites [3]: little to no affinity | increase in AUC0-∞ [4]: < 2 fold | increase in Cmax [4]: < 2 fold | increase in t1/2 with hepatic impairment [4]: < 2 fold | increase in tmax with hepatic impairment [4]: < 2 fold | mean Tlag [4]: 0.33 to 0.54 h | mean molar ratio of plasma AUC0-∞ for NBI-136110 versus NBI-98854 [4]: 28.3-37.3% | MRT (clinical): 51 to 81 h | half-life (clinical; mean t1/2): 33 to 36 h | Tmax (clinical; median tmax): 2.5 to 4 h | AUC(0-t) (clinical; po, 50 mg, AUC0-24): 363 ng·h/mL | AUC(0-t) (clinical; po, 50 mg, AUC0-TLAST): 928 ng·h/mL | AUC(0-inf) (clinical; po, 50 mg, AUC0-∞): 1030 ng·h/mL | Cmax (clinical; po, 50 mg, CMAX): 32.5 ng/mL | MRT (clinical; po, 50 mg): 53 h | Tmax (clinical; po, 50 mg, TMAX): 4 h | half-life (clinical; po, 50 mg, t1/2): 57 h

COc1cc2c(cc1OC)C1CC(=O)C(CC(C)C)CN1CC2 (centres unmarked) [TBZ, reference compound]
inhibition of uptake through VMAT1 (human VMAT1 transporter): no significant inhibitory activity; also recorded: no significant effect on the uptake of monoamines through VMAT1 | induction of ptosis (ptosis): induced ptosis in an equivalent manner | increase in serum prolactin levels (serum prolactin): increase in serum prolactin levels

COc1cc2c(cc1OC)[C@H]1C[C@@H](O)[C@H](CC(C)C)CN1CC2 [NBI-98782, (2R,3R,11bR)-3-isobutyl-9,10-dimethoxy-1,3,4,6,7,11b-hexahydro-2H-pyrido[2,1-a]isoquinolin-2-ol]
affinity for more than 80 binding sites [3]: little to no affinity | specificity for the VMAT2 transporter versus monoamine receptor subtypes [6]: high specificity | increase in AUC0-∞ [4]: approximately 3.5 fold | increase in t1/2 with hepatic impairment [4]: < 2 fold | increase in tmax with hepatic impairment [4]: < 2 fold | mean Tlag [4]: 0.42 to 0.67 h | inhibition of uptake through VMAT1 (human VMAT1 transporter; listed as R,R,R-DHTBZ): no significant inhibitory activity; also recorded: no significant effect on the uptake of monoamines through VMAT1 | MRT (clinical): 36 to 53 h | MRT (clinical; po, 50 mg): 36 h | induction of ptosis (ptosis): induced ptosis in an equivalent manner | increase in serum prolactin levels (serum prolactin): induced a similar increase in serum prolactin levels as TBZ

Reference: patent US10993941B2, “Methods for the administration of certain VMAT2 inhibitors” (Neurocrine Biosciences, Inc., priority 2017, dated 2021)
